# Reference: patent publication US20260193179A9 (priority 2018, published 2026)
# Counter-ions that a name gives are not always drawn.
# Molecular target: mMASP-2 (Mus musculus, UniProt Q91WP0)
# Assay: Enzymatic assay for mMASP-2
# Assay type: biochemical
# Settings: not given
# Sequence of mMASP-2 (Q91WP0 20-685): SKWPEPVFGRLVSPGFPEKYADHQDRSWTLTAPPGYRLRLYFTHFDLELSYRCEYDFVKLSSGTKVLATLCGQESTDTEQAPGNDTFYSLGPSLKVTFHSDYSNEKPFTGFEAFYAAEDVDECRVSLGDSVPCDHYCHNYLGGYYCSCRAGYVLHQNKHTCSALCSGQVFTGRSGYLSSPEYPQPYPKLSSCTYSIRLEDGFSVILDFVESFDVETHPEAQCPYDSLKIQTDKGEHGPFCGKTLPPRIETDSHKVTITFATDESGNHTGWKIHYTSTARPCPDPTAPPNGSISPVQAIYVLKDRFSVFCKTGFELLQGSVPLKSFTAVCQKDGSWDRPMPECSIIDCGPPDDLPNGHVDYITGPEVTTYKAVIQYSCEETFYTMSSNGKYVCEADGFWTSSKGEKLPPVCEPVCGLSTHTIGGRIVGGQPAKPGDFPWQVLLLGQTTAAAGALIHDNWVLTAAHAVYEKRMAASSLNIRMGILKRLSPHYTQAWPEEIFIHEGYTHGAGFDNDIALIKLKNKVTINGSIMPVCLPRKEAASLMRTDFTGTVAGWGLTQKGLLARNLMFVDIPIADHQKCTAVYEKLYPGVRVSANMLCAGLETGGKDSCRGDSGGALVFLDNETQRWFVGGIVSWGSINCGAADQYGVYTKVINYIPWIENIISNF
row,Ki [µM],SMILES
1,< 0.5,C[C@H](NC(=O)c1cc(-c2ccccc2)c[nH]1)C(=O)NCc1ccc(C(=N)N)cc1 [compound 1030]
2,< 0.5,C[C@H](NC(=O)[C@H]1C[C@H](c2ccccc2)CN1)C(=O)NCc1ccc(C(=N)N)cc1 [compound 1036]
3,< 0.5,C[C@H](NC(=O)[C@H](N)C1Cc2ccccc2C1)C(=O)NCc1ccc2nc(N)[nH]c2c1 [compound 1059]
4,< 0.5,C[C@H](NC(=O)[C@H]1C[C@H](c2ccccc2)CN1)C(=O)NCc1ccc2c(N)nccc2c1 [compound 1090]
5,< 0.5,C[C@H](NC(=O)[C@H]1Cc2c([nH]c3ccccc23)CN1)C(=O)NCc1ccc(C(=N)N)cc1 [compound 1097]
6,< 0.5,C[C@H](NC(=O)[C@H](N)CCc1cc(Cl)cc(Cl)c1)C(=O)NCc1ccc(C(=N)N)cc1 [compound 1118]

row,SMILES,Ki [µM]
1,"Cc1nc(N)ccc1CNC(=O)[C@H](C)NC(=O)[C@H]1C[C@@H](c2cccc(CN)c2)CN1 [compound 1291, (2R,4S)—N—((S)-1-(((6-Amino-2-methylpyridin-3-yl)methyl)amino)-1-oxopropan-2-yl)-4-(3-(aminomethyl)phenyl)pyrrolidine-2-carboxamide Dihydrochloride]",10 to 25
2,C[C@H](NC(=O)[C@H]1C[C@H](c2ccccc2)CN1)C(=O)NCc1ccc(/C(N)=N/O)cc1 [compound 1292],10 to 25
3,"C[C@H](NC(=O)[C@H](N)CCc1ccccc1)C(=O)NCc1cc(Cl)ccc1-n1cnnn1 [compound 1325, (R)-2-amino-N—((S)-1-((5-chloro-2-(1H-tetrazol-1-yl)benzyl)amino)-1-oxopropan-2-yl)-4-phenylbutanamide]",10 to 25
4,"Cc1cccc(CNC(=O)[C@H](C)NC(=O)[C@H]2C[C@H](Cc3ccccc3)CN2)c1-n1ncnn1 [compound 1437, (2R,4S)-4-Benzyl-N—((S)-1-((3-methyl-2-(2H-tetrazol-2-yl)benzyl)amino)-1-oxopropan-2-yl)pyrrolidine-2-carboxamide]",2.5 to 10

# Test system: Lectin Pathway
# Assay: Lectin Pathway Activation Assay in Human Serum (mannan-coated ELISA, C3c detection)
# Assay type: biochemical
# Settings: 1% human serum
# Description: Microtiter ELISA plate was coated with mannan from Saccharomyces cerevisiae (Sigma-Aldrich, M7504) for overnight at 4° C. in coating buffer [15 mM Na2CO3, 35 mM NaHCO3]. Plate was blocked with 1% bovine serum albumin (BSA) (Sigma-Aldrich, A3294) in Tris-buffered Saline (TBS) [10 mM Tris-HCl, 140 mM NaCl] for 2 hours at room temperature. […] 100 μL of this mixture were then added to the plate and plate was incubated at 37° C. for up to an hour with gentle shaking, 200 rpm. After that, plate was washed thrice in wash buffer [TBS containing 5 mM CaCl2) and 0.05% Tween-20] and 100 μL of rabbit anti human C3c (Dako, A0062) diluted 1:5000 in wash buffer were added and incubated at 37° C. for 30 minutes.
row,IC50 [nM],SMILES
1,< 500,C[C@H](NC(=O)[C@H](N)CCc1ccccc1)C(=O)NCc1ccc(C(=N)N)cc1 [compound 1024]
2,50 to 5000,N=C(N)c1ccc(CNC(=O)[C@@H]2CCCN2C(=O)[C@H](N)C2CCCCC2)cc1 [compound 1027]
3,500 to 50000,N=C(N)c1ccc(CNC(=O)[C@@H]2CCN2C(=O)[C@H]2Cc3ccccc3CN2)cc1 [compound 1034]
4,< 500,C[C@H](NC(=O)[C@H]1C[C@H](c2ccccc2)CN1)C(=O)NCc1ccc(C(=N)N)cc1 [compound 1036]
5,< 500,N=C(N)c1ccc(CNC(=O)[C@@H]2CCN2C(=O)[C@H](N)CCc2ccccc2)cc1 [compound 1038]
6,50 to 5000,Cc1ccc(CC[C@@H](N)C(=O)N[C@@H](C)C(=O)NCc2ccc(C(=N)N)cc2)cc1 [compound 1043]
7,50 to 5000,C[C@H](NC(=O)[C@H](N)CCc1cccc(F)c1)C(=O)NCc1ccc(C(=N)N)cc1 [compound 1048]
8,50 to 5000,"N=C(N)c1ccc(CNC(=O)[C@@H]2CCN2C(=O)[C@H](N)C2Cc3ccccc3C2)cc1 [compound 1058, (S)-1-((R)-2-Amino-2-(2,3-dihydro-1H-inden-2-yl)acetyl)-N-(4-carbamimidoylbenzyl)azetidine-2-carboxamide]"
9,50 to 5000,C[C@H](NC(=O)[C@H](N)C1Cc2ccccc2C1)C(=O)NCc1ccc2nc(N)[nH]c2c1 [compound 1059]
10,50 to 5000,C[C@H](NC(=O)[C@H](N)CCc1ccc(Cl)cc1)C(=O)NCc1ccc(C(=N)N)cc1 [compound 1080]
11,50 to 5000,C[C@H](NC(=O)[C@H](N)Cc1cccc2ccccc12)C(=O)NCc1ccc(C(=N)N)cc1 [compound 1092]
12,500 to 50000,CN(CC(=O)NCc1ccc(C(=N)N)cc1)C(=O)[C@H](NCC(=O)O)C1CCCCC1 [compound 1096]
13,500 to 50000,C[C@@H](C(=O)NCc1ccc(C(=N)N)cc1)N(C)C(=O)[C@H](NCC(=O)O)C1CCCCC1 [compound 1107]
14,< 500,C[C@H](NC(=O)[C@@H](CCc1ccccc1)NCC(=O)O)C(=O)NCc1ccc(C(=N)N)cc1 [compound 1110]
15,< 500,N=C(N)c1ccc(CNC(=O)[C@@H]2CCN2C(=O)[C@@H](CCc2ccccc2)NCC(=O)O)cc1 [compound 1124]

row,SMILES,IC50 [nM]
1,"N=C(N)c1ccc(CNC(=O)[C@@H]2CCN2C(=O)[C@H](NCC(=O)O)C2CCCCC2)cc1 [compound 999, melagatran, reference compound]",500 to 50000
2,C[C@H](NC(=O)[C@H](N)CCc1ccc(F)cc1)C(=O)NCc1ccc(C(=N)N)cc1 [compound 1047],50 to 5000

# Same assay, conditions: 1% human serum, mannan-coated plate
row,SMILES,IC50 [nM]
1,"CC(=O)Nc1ccc(CCN[C@H](CCc2ccccc2)C(=O)N[C@@H](C)C(=O)NCc2ccc(N)nc2C)cc1 [compound 1368, (R)-2-((4-Acetamidophenethyl)amino)-N—((S)-1-(((6-amino-2-methylpyridin-3-yl)methyl)amino)-1-oxopropan-2-yl)-4-phenylbutanamide]",50 to 500
2,"Cc1nc(N)ccc1CNC(=O)[C@H](C)NC(=O)[C@H]1C[C@H](Cc2ccccc2-c2ccccc2)CN1 [compound 1373, (2R,4S)-4-([1,1′-Biphenyl]-2-ylmethyl)-N—((S)-1-(((6-amino-2-methylpyridin-3-yl)methyl)amino)-1-oxopropan-2-yl)pyrrolidine-2-carboxamide]",50 to 500
3,"CCCCCN[C@H](CCc1ccccc1)C(=O)N[C@@H](C)C(=O)NCc1ccc(N)nc1C [compound 1377, (R)—N—((S)-1-(((6-Amino-2-methylpyridin-3-yl)methyl)amino)-1-oxopropan-2-yl)-2-(pentylamino)-4-phenylbutanamide]",50 to 500
4,"Cc1nc(N)ccc1CNC(=O)[C@H](C)NC(=O)[C@@H](CCc1ccccc1)NCc1ccc(C(=O)N2CCOCC2)cc1 [compound 1381, (R)—N—((S)-1-(((6-Amino-2-methylpyridin-3-yl)methyl)amino)-1-oxopropan-2-yl)-2-((4-(morpholine-4-carbonyl)benzyl)amino)-4-phenylbutanamide]",500 to 5000
5,"C[C@H](NC(=O)[C@H]1C[C@H](c2ccccc2)CN1)C(=O)NCc1cc(Cl)cc(Cl)c1O [compound 1395, (2R,4R)—N—((S)-1-((3,5-dichloro-2-hydroxybenzyl)amino)-1-oxopropan-2-yl)-4-phenylpyrrolidine-2-carboxamide]",5000 to 50000
6,"Cc1nc(N)ccc1CNC(=O)[C@H](C)NC(=O)[C@H]1C[C@@H](c2ccccc2)CCN1CC(=O)O [compound 1398, 2-((2R,4S)-2-(((S)-1-(((6-Amino-2-methylpyridin-3-yl)methyl)amino)-1-oxopropan-2-yl)carbamoyl)-4-phenylpiperidin-1-yl)acetic acid]",50 to 500
7,"Cc1nc(N)ccc1CNC(=O)[C@H](C)NC(=O)[C@H]1C[C@H](Cc2cc(-c3ccccc3)cs2)CN1 [compound 1399, (2R,4R)—N—((S)-1-(((6-Amino-2-methylpyridin-3-yl)methyl)amino)-1-oxopropan-2-yl)-4-((4-phenylthiophen-2-yl)methyl)pyrrolidine-2-carboxamide]",50 to 500
8,"Cc1nc(N)ccc1CNC(=O)[C@H](C)NC(=O)[C@H]1C[C@H](Cc2cccc(-c3ccccc3)c2)CN1 [compound 1406, (2R,4S)-4-([1,1′-Biphenyl]-3-ylmethyl)-N—((S)-1-(((6-amino-2-methylpyridin-3-yl)methyl)amino)-1-oxopropan-2-yl)pyrrolidine-2-carboxamide]",50 to 500
9,"COc1cc(C[C@@H]2CN[C@@H](C(=O)N[C@@H](C)C(=O)NCc3ccc(N)nc3C)C2)cc(OC)c1 [compound 1407, (2R,4S)—N—((S)-1-(((6-Amino-2-methylpyridin-3-yl)methyl)amino)-1-oxopropan-2-yl)-4-(3,5-dimethoxybenzyl)pyrrolidine-2-carboxamide]",50 to 500
10,"C[C@H](NC(=O)[C@H]1C[C@H](Cc2ccccc2-c2ccc(Cl)s2)CN1)C(=O)NCc1cc(Cl)ccc1-n1cnnn1 [compound 1409, (2R,4S)—N—((S)-1-((5-Chloro-2-(1H-tetrazol-1-yl)benzyl)amino)-1-oxopropan-2-yl)-4-(2-(5-chlorothiophen-2-yl)benzyl)pyrrolidine-2-carboxamide]",500 to 5000
11,"Cc1nc(N)ccc1CNC(=O)[C@H](C)NC(=O)[C@H]1C[C@H](Cc2ccccc2-c2ccc(Cl)s2)CN1 [compound 1410, (2R,4S)—N—((S)-1-(((6-Amino-2-methylpyridin-3-yl)methyl)amino)-1-oxopropan-2-yl)-4-(2-(5-chlorothiophen-2-yl)benzyl)pyrrolidine-2-carboxamide]",500 to 5000
12,"Cc1nc(N)ccc1CNC(=O)[C@H](C)NC(=O)[C@H]1C[C@@H](c2ccccc2)CCN1CCC(=O)O [compound 1411, 3-((2R,4S)-2-(((S)-1-(((6-Amino-2-methylpyridin-3-yl)methyl)amino)-1-oxopropan-2-yl)carbamoyl)-4-phenylpiperidin-1-yl)propanoic acid]",50 to 500
13,"Cc1nc(N)ccc1CNC(=O)[C@H](C)NC(=O)[C@H]1C[C@H](Cc2cccc(C(=O)N3CCC3)c2)CN1 [compound 1420, (2R,4S)—N—((S)-1-(((6-Amino-2-methylpyridin-3-yl)methyl)amino)-1-oxopropan-2-yl)-4-(3-(azetidine-1-carbonyl)benzyl)pyrrolidine-2-carboxamide]",50 to 500
14,"C[C@H](NC(=O)[C@H]1C[C@@H](c2ccccc2)CCN1)C(=O)NCc1cc(Cl)ccc1-n1cnnn1 [compound 1426, (2R,4S)—N—((S)-1-((5-Chloro-2-(1H-tetrazol-1-yl)benzyl)amino)-1-oxopropan-2-yl)-4-phenylpiperidine-2-carboxamide]",< 50
15,"C[C@H](NC(=O)[C@H]1C[C@H](c2ccccc2)CN1)C(=O)NCc1cnc2c(c1)c(Cl)cn2C [compound 1442, (2R,4R)—N—((S)-1-(((3-Chloro-1-methyl-1H-pyrrolo[2,3-b]pyridin-5-yl)methyl)amino)-1-oxopropan-2-yl)-4-phenylpyrrolidine-2-carboxamide]",500 to 5000
